Results as given in paper PMC11233931, “Remodeling tumor‐associated macrophage for anti‐cancer effects by rational design of irreversible inhibition of mitogen‐activated protein kinase‐activated protein kinase 2” (MedComm, 2024).

How the values were obtained:
Experiment in all cases: Eurofins kinase selectivity profile against 380 other human recombinant kinases (Table S2)
Type in all cases: biochemical
[1] = molecular target: T1, 380 human recombinant protein kinases (Homo sapiens, UniProt O94806); conditions: PKD3(h), read-out: Inhibition rate
T1 construct: purchased Eurofins (Celle Lévescault)
T1 sequence (O94806 1-890): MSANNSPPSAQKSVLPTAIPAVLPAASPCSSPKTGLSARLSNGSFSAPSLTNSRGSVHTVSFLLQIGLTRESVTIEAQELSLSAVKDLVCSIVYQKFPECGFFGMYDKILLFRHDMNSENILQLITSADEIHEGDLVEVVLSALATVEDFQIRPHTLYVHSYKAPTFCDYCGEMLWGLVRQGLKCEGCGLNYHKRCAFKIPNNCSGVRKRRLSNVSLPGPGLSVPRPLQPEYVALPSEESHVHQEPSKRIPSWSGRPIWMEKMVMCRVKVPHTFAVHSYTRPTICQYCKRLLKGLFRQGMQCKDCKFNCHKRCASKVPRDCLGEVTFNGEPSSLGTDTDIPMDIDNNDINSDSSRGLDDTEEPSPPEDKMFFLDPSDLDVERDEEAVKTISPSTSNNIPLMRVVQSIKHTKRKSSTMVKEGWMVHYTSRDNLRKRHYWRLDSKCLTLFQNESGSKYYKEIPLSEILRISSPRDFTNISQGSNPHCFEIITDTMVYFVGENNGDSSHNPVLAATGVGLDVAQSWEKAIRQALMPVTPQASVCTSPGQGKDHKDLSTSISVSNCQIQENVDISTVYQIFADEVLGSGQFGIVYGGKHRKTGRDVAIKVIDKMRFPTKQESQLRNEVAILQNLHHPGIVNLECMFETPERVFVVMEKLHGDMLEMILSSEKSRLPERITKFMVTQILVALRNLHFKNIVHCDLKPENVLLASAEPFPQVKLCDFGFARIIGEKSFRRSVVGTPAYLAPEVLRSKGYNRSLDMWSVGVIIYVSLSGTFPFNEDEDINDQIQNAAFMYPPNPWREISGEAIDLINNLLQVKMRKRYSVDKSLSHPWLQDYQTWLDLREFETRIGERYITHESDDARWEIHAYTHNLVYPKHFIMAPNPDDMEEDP
Procedure, shortened: (§1)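 Values come from a contract kinase-profiling service that tested the compound at multiple concentrations across 380 recombinant human kinases, as an off-target check against the MK2 activity.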

[2] = molecular target: T2, 380 human recombinant protein kinases (Homo sapiens, UniProt P00519, Y253F); conditions: Abl(Y253F)(h), read-out: Inhibition rate
T2 construct: purchased Eurofins (Celle Lévescault)
Procedure, shortened: as §1

[3] = molecular target: T3, 380 human recombinant protein kinases (Homo sapiens, UniProt P19784); conditions: CK2α2(h), read-out: Inhibition rate
T3 construct: purchased Eurofins (Celle Lévescault)
T3 sequence (P19784 whole entry): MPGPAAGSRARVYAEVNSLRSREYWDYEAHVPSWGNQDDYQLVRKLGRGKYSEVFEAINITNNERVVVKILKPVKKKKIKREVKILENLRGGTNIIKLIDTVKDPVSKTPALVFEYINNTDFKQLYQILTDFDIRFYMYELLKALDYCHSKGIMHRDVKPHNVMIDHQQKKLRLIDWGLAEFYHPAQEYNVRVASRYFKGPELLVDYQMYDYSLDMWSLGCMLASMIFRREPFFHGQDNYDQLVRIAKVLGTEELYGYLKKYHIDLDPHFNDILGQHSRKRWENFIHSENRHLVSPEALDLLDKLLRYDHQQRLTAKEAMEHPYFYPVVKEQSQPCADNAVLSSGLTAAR
Procedure, shortened: as §1

[4] = molecular target: T4, 380 human recombinant protein kinases (Homo sapiens, UniProt Q8IYT8); conditions: ULK2(h), read-out: Inhibition rate (%)
T4 construct: purchased Eurofins (Celle Lévescault)
T4 sequence (Q8IYT8 1-1036): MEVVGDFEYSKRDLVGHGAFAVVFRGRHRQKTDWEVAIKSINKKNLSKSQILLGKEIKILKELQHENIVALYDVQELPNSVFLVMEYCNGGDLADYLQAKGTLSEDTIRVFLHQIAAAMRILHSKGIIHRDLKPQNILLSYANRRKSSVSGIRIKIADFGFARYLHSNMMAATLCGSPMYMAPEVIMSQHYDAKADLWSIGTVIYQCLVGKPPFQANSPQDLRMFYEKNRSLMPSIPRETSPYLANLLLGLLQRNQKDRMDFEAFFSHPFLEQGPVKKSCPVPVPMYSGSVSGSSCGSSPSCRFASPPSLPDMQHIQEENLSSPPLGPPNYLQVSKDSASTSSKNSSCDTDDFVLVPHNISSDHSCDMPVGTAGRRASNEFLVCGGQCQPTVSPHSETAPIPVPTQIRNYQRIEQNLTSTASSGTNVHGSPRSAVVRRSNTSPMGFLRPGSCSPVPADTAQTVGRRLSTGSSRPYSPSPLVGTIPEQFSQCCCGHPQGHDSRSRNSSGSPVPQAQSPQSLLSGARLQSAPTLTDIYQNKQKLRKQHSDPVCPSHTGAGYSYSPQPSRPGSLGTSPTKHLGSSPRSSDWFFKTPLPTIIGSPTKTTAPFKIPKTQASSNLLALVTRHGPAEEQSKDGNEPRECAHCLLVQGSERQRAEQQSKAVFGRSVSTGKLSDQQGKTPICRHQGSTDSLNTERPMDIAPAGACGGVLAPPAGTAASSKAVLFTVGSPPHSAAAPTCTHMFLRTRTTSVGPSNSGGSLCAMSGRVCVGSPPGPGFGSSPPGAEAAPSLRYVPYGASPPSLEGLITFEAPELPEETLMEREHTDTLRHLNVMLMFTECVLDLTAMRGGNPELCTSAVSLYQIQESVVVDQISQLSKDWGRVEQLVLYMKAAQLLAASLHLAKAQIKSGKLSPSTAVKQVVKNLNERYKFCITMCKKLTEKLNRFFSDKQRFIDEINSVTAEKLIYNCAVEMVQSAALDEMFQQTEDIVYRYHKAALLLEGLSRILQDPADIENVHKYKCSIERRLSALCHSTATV
Procedure, shortened: as §1

[5] = molecular target: T5, 380 human recombinant protein kinases (Homo sapiens, UniProt Q9P0L2); conditions: MARK1(h), read-out: Inhibition rate
T5 construct: purchased Eurofins (Celle Lévescault)
T5 sequence (Q9P0L2 whole entry): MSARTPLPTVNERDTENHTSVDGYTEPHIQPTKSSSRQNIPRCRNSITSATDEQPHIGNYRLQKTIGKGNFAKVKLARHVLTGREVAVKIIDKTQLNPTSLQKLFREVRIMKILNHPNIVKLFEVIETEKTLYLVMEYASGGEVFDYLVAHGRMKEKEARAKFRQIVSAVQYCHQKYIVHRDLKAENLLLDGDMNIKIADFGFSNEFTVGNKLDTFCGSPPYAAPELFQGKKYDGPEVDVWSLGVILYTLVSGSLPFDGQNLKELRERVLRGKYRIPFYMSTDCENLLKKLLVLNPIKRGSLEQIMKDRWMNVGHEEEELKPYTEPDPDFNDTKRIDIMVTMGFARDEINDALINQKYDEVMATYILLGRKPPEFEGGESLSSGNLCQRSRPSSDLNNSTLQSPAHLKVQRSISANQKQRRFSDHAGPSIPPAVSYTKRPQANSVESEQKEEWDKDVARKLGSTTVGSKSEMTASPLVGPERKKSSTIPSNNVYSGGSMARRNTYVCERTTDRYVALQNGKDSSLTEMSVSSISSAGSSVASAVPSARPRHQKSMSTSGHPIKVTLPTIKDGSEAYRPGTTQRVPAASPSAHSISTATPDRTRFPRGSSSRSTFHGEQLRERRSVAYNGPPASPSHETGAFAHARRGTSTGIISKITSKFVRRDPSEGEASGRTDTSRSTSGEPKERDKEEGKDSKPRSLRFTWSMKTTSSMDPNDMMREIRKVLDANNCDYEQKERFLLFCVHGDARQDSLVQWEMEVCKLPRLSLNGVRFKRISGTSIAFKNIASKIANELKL
Procedure, shortened: as §1

## C=CC(=O)Nc1cc(-c2cc(-c3cc4c([nH]3)CCNC4=O)ccn2)ccc1OC(F)(F)F [compound 11]
[1]; 10 nM
  inhibition at 0.01 µM: 4%
[1]; 100 nM
  inhibition at 0.1 µM: 15%
[1]; 1000 nM
  inhibition at 1 µM: 55%
[2]; 10 nM
  inhibition at 0.01 µM: 0%
[2]; 100 nM
  inhibition at 0.1 µM: 2%
[2]; 1000 nM
  inhibition at 1 µM: 21%
[3]; 10 nM
  inhibition at 0.01 µM: 10%
[3]; 100 nM
  inhibition at 0.1 µM: 14%
[3]; 1000 nM
  inhibition at 1 µM: 26%
[4]; 10 nM
  inhibition at 0.01 µM: 6%
[4]; 100 nM
  inhibition at 0.1 µM: 6%
[4]; 1000 nM
  inhibition at 1 µM: 5%
[5]; 10 nM
  inhibition at 0.01 µM: -1%
[5]; 100 nM
  inhibition at 0.1 µM: -12%
[5]; 1000 nM
  inhibition at 1 µM: -4%
